According to patent US10251408B2, “Catechin function enhancement method” (KYUSHU UNIVERSITY, NATIONAL UNIVERSITY CORPORATION, priority 2014, dated 2019):

Key:
[1] = tested on: 3-hydroxy-3-methyl-glutaryl-CoA reductase (HMGCR); test: Liver HMGCR mRNA by real-time PCR in HF/HS diet-fed mice; type: in vivo, mouse; settings: HF/HS diet-fed C57BL/6J mice; Yabukita 0.2% and/or eriodictyol 0.45 g/kg diet; 8 weeks; FIG. 6
Excerpt: Male C57BL/6J mice at 12 weeks of age were preliminarily kept for 1 week and then divided into 5 groups such that the average body weight was equal in all groups, i.e., a control (AIN-93G-based diet) group, a HF/HS (high-fat high-sucrose diet) group, a Yabukita (0.2%) (HF/HS+Yabukita) group, an eriodictyol (HF/HS+eriodictyol) group, and a Yabukita+eriodictyol (HF/HS+Yabukita+eriodictyol) group. A feed supplemented with Yabukita (0.2%) and eriodictyol (0.45 g/kg diet) was given to the mice. The feed was given in an amount of 4 g/day and the mice were kept for 8 weeks under ad libitum drinking conditions. After being fasted for 16 hours, the mice were sacrificed by abdominal aortic puncture under isoflurane anesthesia. […] Yabukita and eriodictyol were examined for their effect on cholesterol metabolism-related gene expression in the liver of high-fat high-sucrose diet-fed obese model mice. C57BL/6J mice were preliminarily kept for 1 week and then divided into the respective groups such that the average body weight was equal in all groups. Each feed was given in an amount of 4 g/day and the mice were kept for 8 weeks under ad libitum drinking conditions. After being fasted for 16 hours, the mice were sacrificed by abdominal aortic puncture under isoflurane anesthesia.

[2] = tested on: tail suspension test-induced disuse amyotrophy in mice; test: Tail suspension test-induced disuse amyotrophy (quadriceps femoris weight); type: in vivo, mouse; settings: C57BL/6J mice; 5 mg/kg intragastric once a day; tail suspension for 10 days from day 7; FIG. 4
Description: Male C57BL/6J mice at 12 weeks of age were divided into 5 groups such that the average body weight was equal in all groups, i.e., a GR (ground) group, a TS (tail suspension) group, an EGCG group, an eriodictyol group, and an EGCG+eriodictyol group. From the beginning of grouping, the GR and TS groups received physiological saline, the EGCG group received EGCG and the eriodictyol group received eriodictyol (5 mg/kg) by intragastric administration, while the EGCG+eriodictyol group received EGCG and eriodictyol (5 mg/kg) by intragastric administration through a sonde. For 7 days from the beginning of grouping, all the groups were kept under normal conditions, and the TS, EGCG, eriodictyol, and EGCG+eriodictyol groups were then subjected to a tail suspension test. After the tail suspension test for 10 days (at 17 days after initiation of the experiment), all the mice were sacrificed by abdominal aortic puncture under isoflurane anesthesia, and the quadriceps femoris was excised from each mouse and measured for its weight. Each sample was administered daily throughout the experimental period. […] At 10 days after starting the tail suspension test, the mice were sacrificed by abdominal aortic puncture under isoflurane anesthesia, and the quadriceps femoris was excised from each mouse and measured for its weight.

## O=C1C[C@@H](c2ccc(O)c(O)c2)Oc2cc(O)cc(O)c21 [eriodictyol]
[1]
  mRNA expression level of HMGCR in the liver: no effect
[2]
  effect on amyotrophy (quadriceps femoris weight): no effect on amyotrophy
